From PMC11995724, “Antibiotic target discovery by integrated phenotypic and activity-based profiling of electrophilic fragments” (Cell chemical biology, 2025)
Structures can show the parent of a compound that is named as a salt.

Experiment: in vitro
Conditions: human, hek293t cells
CC(Cl)C(=O)NCC1CN(c2nncs2)CCO1 (centres unmarked) [7-O03, 2-chloro-N-{[4-(1,3,4-thiadiazol-2-yl)morpholin-2-yl]methyl}propanamide] gave a viability at 48 h, 25 µM of 106%. COc1cccc(CN(C(=O)CCl)C23CC4CC(CC(C4)C2)C3)c1 [5-E05, N-(adamantan-1-yl)-2-chloro-N-[(3-methoxyphenyl)methyl]acetamide] gave a viability at 48 h, 25 µM of 0.151%. Compound N#CC(=Cc1cccc(O)c1)C(=O)NCc1ccc(Cl)cc1 [8-P14, N-[(4-chlorophenyl)methyl]-2-cyano-3-(3-hydroxyphenyl)prop-2-enamide] has a viability at 48 h, 25 µM of 64.4%. Work on CC(NC(=O)CCl)c1nc(Cc2ccccc2)no1 (centres unmarked) [6-L07, N-[1-(3-benzyl-1,2,4-oxadiazol-5-yl)ethyl]-2-chloroacetamide] yielded a viability at 48 h, 25 µM of 1.28%. C=CC(=O)N1CCC(C(=O)NC2(Cc3ccccc3)CCCC2)CC1 [3-H12, N-(1-benzylcyclopentyl)-1-(prop-2-enoyl)piperidine-4-carboxamide] showed a viability at 48 h, 25 µM of 83.4%. Work on O=C(CCl)NCCc1ccc(Cl)cc1Cl [6-M16, 2-chloro-N-[2-(2,4-dichlorophenyl)ethyl]acetamide] yielded a viability at 48 h, 25 µM of 1.06%. Work on Cc1noc(C)c1COC1CCN(C(=O)C(C)Cl)C1 (centres unmarked) [7-O14, 2-chloro-1-{3-[(3,5-dimethyl-1,2-oxazol-4-yl)methoxy]pyrrolidin-1-yl}propan-1-one] yielded a viability at 48 h, 25 µM of 90.9%. In the case of CC1CCN(Cc2csc(NC(=O)CCl)n2)CC1 [6-E17, 2-chloro-N-{4-[(4-methylpiperidin-1-yl)methyl]-1,3-thiazol-2-yl}acetamide hydrochloride], the viability at 48 h, 25 µM is reported as 0.0269%. C=CC(=O)N(C)CC(=O)NC(C)c1ncc(C)s1 (centres unmarked) [3-I14, N-methyl-N-({[1-(5-methyl-1,3-thiazol-2-yl)ethyl]carbamoyl}methyl)prop-2-enamide] gave a viability at 48 h, 25 µM of 69.4%. O=C(CCl)NC(c1ccccc1)C1CC1c1ccncc1 (centres unmarked) [7-F03, 2-chloro-N-{phenyl[2-(pyridin-4-yl)cyclopropyl]methyl}acetamide hydrochloride] showed a viability at 48 h, 25 µM of 0.921%. Work on CC(Cl)C(=O)NCC(=O)N(C)Cc1cccnc1 (centres unmarked) [7-P15, 2-chloro-N-({methyl[(pyridin-3-yl)methyl]carbamoyl}methyl)propanamide] yielded a viability at 48 h, 25 µM of 91.3%. Compound C=CC(=O)Nc1cccc(C(=O)C(F)F)c1 [1-G14, N-[3-(2,2-difluoroacetyl)phenyl]prop-2-enamide] has a viability at 48 h, 25 µM of 50.4%. Cc1ccccc1NC(=O)C(C#N)=Cc1cc(C)n(C2CC2)c1C [8-A16, 2-cyano-3-(1-cyclopropyl-2,5-dimethyl-1H-pyrrol-3-yl)-N-(2-methylphenyl)prop-2-enamide] gave a viability at 48 h, 25 µM of 47.1%. Work on CC(Cl)C(=O)N1CCN(C(=O)Cc2cccc(Cl)c2)C(C)C1 (centres unmarked) [7-E20, 2-chloro-1-{4-[2-(3-chlorophenyl)acetyl]-3-methylpiperazin-1-yl}propan-1-one] yielded a viability at 48 h, 25 µM of 65.1%. C=CC(=O)NCc1nc2ccccc2c(=O)n1C [3-J10, N-[(3-methyl-4-oxo-3,4-dihydroquinazolin-2-yl)methyl]prop-2-enamide] showed a viability at 48 h, 25 µM of 88.6%. In the case of C=CC(=O)NC(CO)c1nc(C)no1 (centres unmarked) [1-C05, N-[2-hydroxy-1-(3-methyl-1,2,4-oxadiazol-5-yl)ethyl]prop-2-enamide], the viability at 48 h, 25 µM is reported as 71.4%. Work on CC(Cl)C(=O)NC1(c2ccccc2)CCOCC1 (centres unmarked) [7-A11, 2-chloro-N-(4-phenyloxan-4-yl)propanamide] yielded a viability at 48 h, 25 µM of 108%. Cc1n[nH]c(C)c1C=C(C#N)C(=O)Nc1cc(Cl)cc(Cl)c1 [8-M08, 2-cyano-N-(3,5-dichlorophenyl)-3-(3,5-dimethyl-1H-pyrazol-4-yl)prop-2-enamide] showed a viability at 48 h, 25 µM of 58.6%. CSc1cc(C(=O)CCl)ccc1NC(C)=O [10-H08, N-[4-(2-chloroacetyl)-2-(methylsulfanyl)phenyl]acetamide] gave a viability at 48 h, 25 µM of 8.39%. COc1ccc(CCNC(=O)C(C)Cl)cc1 (centres unmarked) [5-D12, 2-chloro-N-[2-(4-methoxyphenyl)ethyl]propanamide] showed a viability at 48 h, 25 µM of 104%. C=CC(=O)NCc1ccccc1S(=O)(=O)NC [1-N03, N-{[2-(methylsulfamoyl)phenyl]methyl}prop-2-enamide] gave a viability at 48 h, 25 µM of 92.3%. Work on Cc1ccccc1NC(=O)C(C#N)=Cc1cc(C)n(CC(C)C)c1C [8-D19, 2-cyano-3-[2,5-dimethyl-1-(2-methylpropyl)-1H-pyrrol-3-yl]-N-(2-methylphenyl)prop-2-enamide] yielded a viability at 48 h, 25 µM of 118%. O=C(CCl)N1CCC1c1cccc(F)c1 (centres unmarked) [5-K10, 2-chloro-1-[2-(3-fluorophenyl)azetidin-1-yl]ethan-1-one] showed a viability at 48 h, 25 µM of 28.5%. Work on C=CC(=O)Nc1ccccc1-c1nnnn1C [1-M05, N-[2-(1-methyl-1H-1,2,3,4-tetrazol-5-yl)phenyl]prop-2-enamide] yielded a viability at 48 h, 25 µM of 79.7%. With C=CC(=O)NC1(c2cc(C)no2)CCOCC1 [1-F18, N-[4-(3-methyl-1,2-oxazol-5-yl)oxan-4-yl]prop-2-enamide] the viability at 48 h, 25 µM was 68.5%. Compound C=CC(=O)NCc1ccc(C(=O)N2CCOC3(CCCC3)C2)cc1 [3-B05, N-[(4-{6-oxa-9-azaspiro[4.5]decane-9-carbonyl}phenyl)methyl]prop-2-enamide] has a viability at 48 h, 25 µM of 69.9%. With CC(Cl)C(=O)Nc1ccc([N+](=O)[O-])cc1 (centres unmarked) [4-I18, 2-chloro-N-(4-nitrophenyl)propanamide] the viability at 48 h, 25 µM was 86.7%. In the case of CCc1ccccc1NC(=O)CNC(=O)CCl [4-I08, 2-chloro-N-{[(2-ethylphenyl)carbamoyl]methyl}acetamide], the viability at 48 h, 25 µM is reported as 0.8%. O=C(CCl)NCCN1C(=O)SC(=Cc2ccccc2F)C1=O [4-A10, 2-chloro-N-(2-{5-[(2-fluorophenyl)methylidene]-2,4-dioxo-1,3-thiazolidin-3-yl}ethyl)acetamide] showed a viability at 48 h, 25 µM of -0.106%. With N#CC(=Cc1cccc(F)c1F)C(=O)NC(N)=O [8-H04, {2-cyano-2-[(2,3-difluorophenyl)methylidene]acetyl}urea] the viability at 48 h, 25 µM was 89.9%. Cc1ccc(NC(=O)C2(CNC(=O)C(C)Cl)CCCC2)cc1C (centres unmarked) [7-J13, 1-[(2-chloropropanamido)methyl]-N-(3,4-dimethylphenyl)cyclopentane-1-carboxamide] gave a viability at 48 h, 25 µM of 108%. COc1ccc(NC(=O)C(C)Cl)cc1Cl (centres unmarked) [4-I14, 2-chloro-N-(3-chloro-4-methoxyphenyl)propanamide] showed a viability at 48 h, 25 µM of 90.7%. In the case of N#CC(=Cc1cccc(F)c1F)C(N)=O [9-A03, 2-cyano-3-(2,3-difluorophenyl)prop-2-enamide], the viability at 48 h, 25 µM is reported as 115%. C=CC(=O)Nc1cnn2cc(C)cnc12 [1-G19, N-{6-methylpyrazolo[1,5-a]pyrimidin-3-yl}prop-2-enamide] showed a viability at 48 h, 25 µM of 96.4%. C=CC(=O)N1CCCCC1Cn1ccnn1 (centres unmarked) [2-K07, 1-{2-[(1H-1,2,3-triazol-1-yl)methyl]piperidin-1-yl}prop-2-en-1-one] showed a viability at 48 h, 25 µM of 89.3%. Cc1cc(C(=O)CCl)c(C)n1-c1ccon1 [10-F06, 2-chloro-1-[2,5-dimethyl-1-(1,2-oxazol-3-yl)-1H-pyrrol-3-yl]ethan-1-one] showed a viability at 48 h, 25 µM of 1.56%. Compound C=CC(=O)NCc1cccc(-c2nnc[nH]2)c1 [1-I18, N-{[3-(4H-1,2,4-triazol-3-yl)phenyl]methyl}prop-2-enamide] has a viability at 48 h, 25 µM of 172%. Work on COc1ccc(NC(C)=O)cc1NC(=O)CCl [5-G03, 2-chloro-N-(5-acetamido-2-methoxyphenyl)acetamide] yielded a viability at 48 h, 25 µM of 1.44%. In the case of CC(Cl)C(=O)Nc1cccc2ncccc12 (centres unmarked) [4-M10, 2-chloro-N-(quinolin-5-yl)propanamide], the viability at 48 h, 25 µM is reported as 97.4%. O=C(Nc1ccc(F)cc1)N1CCSSCC1 [10-D21, N-(4-fluorophenyl)-1,2,5-dithiazepane-5-carboxamide] gave a viability at 48 h, 25 µM of 84%. In the case of O=C(CCl)Nc1ccc(N=Nc2ccccc2)cc1 [4-C11, 2-chloro-N-[4-(2-phenyldiazen-1-yl)phenyl]acetamide], the viability at 48 h, 25 µM is reported as 0.339%. Compound CCc1ccccc1NC(=O)CN(C)C(=O)CCl [6-L06, 2-chloro-N-{[(2-ethylphenyl)carbamoyl]methyl}-N-methylacetamide] has a viability at 48 h, 25 µM of 0.728%. Compound C=CC(=O)NC(C)c1nnc(-c2ccccc2F)s1 (centres unmarked) [3-N13, N-{1-[5-(2-fluorophenyl)-1,3,4-thiadiazol-2-yl]ethyl}prop-2-enamide] has a viability at 48 h, 25 µM of 76%. N#CC(=Cc1cccs1)C(=O)Nc1cccc2ncccc12 [8-D20, 2-cyano-N-(quinolin-5-yl)-3-(thiophen-2-yl)prop-2-enamide] gave a viability at 48 h, 25 µM of 84.3%. Work on C=CC(=O)Nc1ccc(C(=O)N2CCC3(CC2)OCCCO3)cc1 [2-D16, N-(4-{1,5-dioxa-9-azaspiro[5.5]undecane-9-carbonyl}phenyl)prop-2-enamide] yielded a viability at 48 h, 25 µM of 49.1%. CC1=C(C#N)C(=O)N(C2CCS(=O)(=O)C2)C(=O)C1=Cc1ccco1 (centres unmarked) [9-O13, 1-(1,1-dioxo-1lambda6-thiolan-3-yl)-5-[(furan-2-yl)methylidene]-4-methyl-2,6-dioxo-1,2,5,6-tetrahydropyridine-3-carbonitrile] gave a viability at 48 h, 25 µM of 99%. With Cc1csc(C2(NC(=O)CCl)CCOCC2)n1 [7-J03, 2-chloro-N-[4-(4-methyl-1,3-thiazol-2-yl)oxan-4-yl]acetamide] the viability at 48 h, 25 µM was 0.732%. In the case of CSc1ccc(C=C(C#N)C(=O)Nc2ccc(C(=O)O)cc2)cc1 [9-M08, 4-{2-cyano-3-[4-(methylsulfanyl)phenyl]prop-2-enamido}benzoic acid], the viability at 48 h, 25 µM is reported as 118%. With COc1ccccc1NC(=O)C(C#N)=Cc1sccc1C [9-P19, 2-cyano-N-(2-methoxyphenyl)-3-(3-methylthiophen-2-yl)prop-2-enamide] the viability at 48 h, 25 µM was 133%. In the case of O=C(CCl)N(Cc1cc(F)ccc1F)CC1CCOCC1 [5-P03, 2-chloro-N-[(2,5-difluorophenyl)methyl]-N-[(oxan-4-yl)methyl]acetamide], the viability at 48 h, 25 µM is reported as 0.456%. Compound O=C(CCl)Nc1cc(S(=O)(=O)N2CCOCC2)ccc1O [6-J12, 2-chloro-N-[2-hydroxy-5-(morpholine-4-sulfonyl)phenyl]acetamide] has a viability at 48 h, 25 µM of 116%. Compound C=CC(=O)NCc1nnnn1-c1ccc(F)cc1 [1-M22, N-{[1-(4-fluorophenyl)-1H-1,2,3,4-tetrazol-5-yl]methyl}prop-2-enamide] has a viability at 48 h, 25 µM of 106%. In the case of O=C(CCl)NCC1CCCN(C(=O)C(F)(F)F)C1 (centres unmarked) [7-N18, 2-chloro-N-{[1-(2,2,2-trifluoroacetyl)piperidin-3-yl]methyl}acetamide], the viability at 48 h, 25 µM is reported as 0.898%.
